Patent US20110217265A1, “Screening for Inhibitors of HCV Amphipathic Helix (AH) Function” (priority 2008, published 2011)
“Also recorded” adds a separate entry of the source.

How the values were obtained:
2a HCV RNA replicon = 2a HCV RNA replicon assay (FL-J6/JFH-5'C19Rluc2AUbi, luciferase); type: cell-based, Hepatitis C Virus genotype 2a; details: full-length J6/JFH Luc, luciferase at 72 hr of treatment
How it was run: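 Huh7.5 cells electroporated with in vitro-transcribed FL-J6/JFH-5′C19Rluc2AUbi RNA (full-length genotype 2a, Renilla luciferase) and treated from 24 h, with compound refreshed daily for 72 h. Replication measured as Renilla luminescence, normalized to untreated or matched-DMSO samples. Alamar Blue fluorescence on the same wells assessed cytotoxicity.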

[1] = system: subgenomic genotype 1b replicon RNA (Bart79ILuc); experiment: Transient genotype 1b subgenomic replicon (Bart79I-luc) luciferase replication assay in Huh7.5 cells; type: cell-based, Hepatitis C Virus genotype 1b; details: luciferase at 72 hr of treatment
From the text: Plasmids. Bart79I, a high-efficiency subgenomic replicon of HCV (28), harbors the neomycin resistance gene (neo) and the HCV nonstructural proteins. The Bart-Luciferase plasmid, Bart79I-luc, was cloned from the Bart791 parent (29) and the pGL3-Basic parent (Promega). In brief, a NotI site was introduced after the 15th amino acid of Core in Bart791 using PCR mutagenesis. The plasmid pcDNA3.1-NS4B, which encodes the Con1 NS4B sequence and was used to study the protein stability of the wild type and mutant NS4Bs, was described previously. […]
Transient Replication Assays. […] Firefly luciferase activities were measured at 8, 48, 96, and 144 hr post electroporation by using a firefly luciferase kit from Promega (Madison, Wis.).
Antiviral Assays of Compounds. […] Plates were then scanned and fluorescence was detected by using a FLEXstation II 384 (Molecular Devices). […] Viral RNA replication was determined using Renilla (FL-J6/JFH-5′C19Rluc2AUbi) or firefly (Bart791-luc) luciferase assays, according to the manufacturer's (Promega) directions. The same samples subjected to the viability assay described below were analyzed in this assay. […] Luminescence was measured over 10 seconds with a 2-second delay using a Berthold LB 96 V luminometer. […]

SMILES: CC(C)CN(C)c1nc(N)c(C(=O)NC(=N)N)nc1Cl [C4, 3-amino-N-carbamimidoyl-6-chloro-5-(isobutyl(methyl)amino)pyrazine-2-carboxamide]
- Inhibition of HCV genotype 2a viral genome replication (2a HCV RNA replicon): exhibited inhibition
- Inhibition of HCV genotype 1b genome replication [1]: inhibits HCV replication; also recorded: dose-dependent inhibition
